Assay results taken from patent publication US8642629B2, “Naphthylacetic acids” (Hoffmann-La Roche Inc., priority 2008, dated 2014).

What follows are compounds tested against T1, human CRTH2 (Homo sapiens, UniProt Q9Y5Y4) (assay: Human CRTH2 Receptor Binding Assay (whole cell, [3H]ramatroban competition)). Conditions: CHO-K1 cells expressing human CRTH2 and G-alpha16; 20 nM [3H]ramatroban; 1 hour, room temperature.
T1 construct: expressed in transfected cells; host or cells: CHO-K1
T1 sequence (Q9Y5Y4 1-395): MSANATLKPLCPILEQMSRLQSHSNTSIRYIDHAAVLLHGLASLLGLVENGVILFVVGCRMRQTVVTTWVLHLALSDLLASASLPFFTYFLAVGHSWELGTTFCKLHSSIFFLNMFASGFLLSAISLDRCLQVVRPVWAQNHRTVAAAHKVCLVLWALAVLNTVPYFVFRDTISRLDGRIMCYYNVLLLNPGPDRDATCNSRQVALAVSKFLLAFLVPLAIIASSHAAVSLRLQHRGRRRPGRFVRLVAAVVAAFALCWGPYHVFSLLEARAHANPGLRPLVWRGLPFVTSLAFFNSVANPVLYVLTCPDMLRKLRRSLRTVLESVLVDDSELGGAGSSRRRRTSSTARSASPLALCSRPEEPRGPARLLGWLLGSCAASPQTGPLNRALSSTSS
Source text: A whole cell receptor binding assay using [^3H]ramatroban as the competing radioactive ligand was employed to evaluate the compound binding activity to human CRTH2. The radioactive ligand [^3H]ramatroban was synthesized according to Sugimoto et. al. (Eur. J. Pharmacol. 524, 30-37, 2005) to a specific activity of 42 Ci/mmol.
A cell line stably expressing human CRTH2 was established by transfecting CHO-K1 cells with two mammalian expression vectors that harbored human CRTH2 and G-alpha16 cDNAs, respectively, using FuGene® 6 transfection reagent (from Roche). Stable clones expressing CRTH2 were selected by staining each clone with BM16 (BD Pharmingen™ from BD Biosciences, a division of Becton, Dickinson and Company), which is a rat monoclonal antibody to human CRTH2. The cells were maintained as monolayer cultures in Ham's F-12 medium containing 10% fetal bovine serum, 100 units/mL penicillin, 100 μg/mL streptomycin, 2 mM glutamine, 0.5 mg/mL G418 (geneticin) for CRTH2, and 0.2 mg/mL hygromycin-B (for G-alpha 16). For whole cell receptor binding assay, the monolayer cells were rinsed once with PBS (phosphate buffered saline), dissociated using ethylenediaminetetraacetate (Versene™ EDTA from Lonza Inc.), and suspended in PBS containing 10 mM MgCl2 and 0.06% BSA (bovine serum albumin) at 1.5×10^6 cells/mL.
The binding reactions (0.2 mL) were performed in 96-well plates at room temperature in PBS containing 1.5×10^5 cells, 10 mM MgCl2, 0.06% BSA, 20 nM [^3H]ramatroban, and test compound at various concentrations. After 1 hour of binding reactions, the cells were harvested on GF™/B filter microplates (microtiter plates with embedded glass fiber from PerkinElmer, Inc.) and washed 5 times with PBS using a Filtermate™ Harvester (a cell harvester that harvests and washes cells from microplates from PerkinElmer, Inc.). The radioactivities bound to the cells were determined using a microplate scintillation counter (TopCount® NXT, from PerkinElmer, Inc.) after adding 50 μL of Microscint™ 20 scintillation fluid (from PerkinElmer, Inc.) to each well of the filter plates. The radioactivity from non-specific binding was determined by replacing compound with 10 μM of 15(R)-15-methyl PGD2 (from Cayman Chemical Company) in the reaction mixtures. The radioactivity bound to the cells in the absence of compound (total binding) was determined by replacing compound with 0.25% of DMSO (dimethyl sulfoxide) in the reaction mixture. Specific binding data were obtained by subtracting the radioactivity of non-specific binding from each binding data.
The IC50 value is defined as the concentration of the tested compound that is required for 50% inhibition of total specific binding. In order to calculate the IC50 value, the percent inhibition data were determined for 7 concentrations for each compound. The percent inhibition for a compound at each concentration was calculated according to the following formula, [1−(specific binding in the presence of compound)/(total specific binding)]×100. The IC50 value was then obtained by fitting the percent inhibition data to a sigmoidal dose-response (4 parameter logistic) model in the XLfit® software Excel add-in program [from ID Business Solutions Ltd., model 205, where F(x)=(A+(B−A)/(1+((C/x)^D)))].

| Compound | IC50 [nM] |
| --- | --- |
| CCS(=O)(=O)c1ccc(Oc2c(C)c(CC(=O)O)cc3ccc(F)cc23)c(F)c1 [Example 2-13, [4-(4-ethanesulfonyl-2-fluoro-phenoxy)-6-fluoro-3-methyl-naphthalen-2-yl]-acetic acid] | 2.4 |
| CCS(=O)(=O)c1ccc(Oc2c(C)c(CC(=O)O)cc3ccc(F)cc23)nc1 [Example 2-33, [4-(5-ethanesulfonyl-pyridin-2-yloxy)-6-fluoro-3-methyl-naphthalen-2-yl]-acetic acid] | 2.7 |
| CCS(=O)(=O)c1ccc(Oc2cc(CC(=O)O)cc3ccc(F)cc23)nc1 [Example 1-11, [4-(5-ethanesulfonyl-pyridin-2-yloxy)-6-fluoro-naphthalen-2-yl]-acetic acid] | 5.6 |
| CCS(=O)(=O)c1ccc(Oc2cc(CC(=O)O)cc3ccc(Br)cc23)cc1 [Example 15-1, [6-Bromo-4-(4-ethanesulfonyl-phenoxy)-naphthalen-2-yl]-acetic acid] | 5.4 |
| CCS(=O)(=O)c1ccc(Oc2cc(CC(=O)O)cc3cc(OC)c(OC)cc23)cc1 [Example 1-23, [4-(4-Ethanesulfonyl-phenoxy)-6,7-dimethoxy-naphthalen-2-yl]-acetic acid] | 97.3 |
| CCS(=O)(=O)c1ccc(Oc2c(C)c(CC(=O)O)cc3ccc(F)cc23)cc1C [Example 2-14, [4-(4-ethanesulfonyl-3-methyl-phenoxy)-6-fluoro-3-methyl-naphthalen-2-yl]-acetic acid] | 1.6 |
| Cc1c(CC(=O)O)cc2ccc(F)cc2c1Oc1ncc(S(C)(=O)=O)cc1Br [Example 2-36, [4-(3-bromo-5-methanesulfonyl-pyridin-2-yloxy)-6-fluoro-3-methyl-naphthalen-2-yl]-acetic acid] | 0.02 |
| CCS(=O)(=O)c1ccc(Oc2cc(CC(=O)O)cc3ccc(Br)cc23)nc1 [Example 12-1, [6-Bromo-4-(5-ethanesulfonyl-pyridin-2-yloxy)-naphthalen-2-yl]-acetic acid] | 5.3 |
| CCS(=O)(=O)c1ccc(Oc2c(C)c(CC(=O)O)cc3ccc(F)cc23)cc1F [Example 2-17, [4-(4-ethanesulfonyl-3-fluoro-phenoxy)-6-fluoro-3-methyl-naphthalen-2-yl]-acetic acid] | 3.7 |
| CS(=O)(=O)c1ccc(S(=O)(=O)c2cc(CC(=O)O)cc3ccc(F)cc23)cc1 [Example 11-1, [6-fluoro-4-(4-methanesulfonyl-benzenesulfonyl)-naphthalen-2-yl]-acetic acid] | 7.7 |
| CCS(=O)(=O)c1ccc(Oc2c(C)c(CC(=O)O)cc3ccc(F)cc23)cc1 [Example 2-1, [4-(4-ethanesulfonyl-phenoxy)-6-fluoro-3-methyl-naphthalen-2-yl]-acetic acid] | 3.2 |
| CCS(=O)(=O)c1ccc(Oc2cc(CC(=O)O)cc3ccc(C(F)(F)F)cc23)cc1 [Example 1-17, [4-(4-Ethanesulfonyl-phenoxy)-6-trifluoromethyl-naphthalen-2-yl]-acetic acid] | 10.5 |
| CCS(=O)(=O)c1ccc(Oc2cc(CC(=O)O)cc3ccc(OC)cc23)cc1 [Example 1-15, [4-(4-Ethanesulfonyl-phenoxy)-6-methoxy-naphthalen-2-yl]-acetic acid] | 5.3 |
| CCS(=O)(=O)c1ccc(Oc2cc(CC(=O)O)cc3ccc(C(F)(F)F)cc23)nc1 [Example 1-16, [4-(5-Ethanesulfonyl-pyridin-2-yloxy)-6-trifluoromethyl-naphthalen-2-yl]-acetic acid] | 19.1 |

Now from value to compound:

| IC50 [nM] | Compound |
| --- | --- |
| 3.1 | CCS(=O)(=O)c1ccc(Oc2c(F)c(CC(=O)O)cc3ccc(F)cc23)nc1 [Example 5-1, [4-(5-ethanesulfonyl-pyridin-2-yloxy)-3,6-difluoro-naphthalen-2-yl]-acetic acid] |
| 2.9 | Cc1c(CC(=O)O)cc2ccc(F)cc2c1Oc1ccc(S(=O)(=O)c2ccc(F)cc2)cc1 [Example 2-27, {6-fluoro-4-[4-(4-fluoro-benzenesulfonyl)-phenoxy]-3-methyl-naphthalen-2-yl}-acetic acid] |
| 2 | CCN(CC)S(=O)(=O)c1ccc(Oc2c(C)c(CC(=O)O)cc3ccc(F)cc23)cc1 [Example 2-39, [4-(4-diethylsulfamoyl-phenoxy)-6-fluoro-3-methyl-naphthalen-2-yl]-acetic acid] |
| 2.4 | CCS(=O)(=O)c1ccc(Oc2c(C)c(CC(=O)O)cc3ccc(F)cc23)c(Cl)c1 [Example 2-21, [4-(2-chloro-4-ethanesulfonyl-phenoxy)-6-fluoro-3-methyl-naphthalen-2-yl]-acetic acid] |
| 2.2 | Cc1c(CC(=O)O)cc2ccc(F)cc2c1Oc1ccc(S(=O)(=O)N2CCCC2)cc1 [Example 2-38, {6-fluoro-3-methyl-4-[4-(pyrrolidine-1-sulfonyl)-phenoxy]-naphthalen-2-yl}-acetic acid] |
| 1.7 | Cc1c(CC(=O)O)cc2ccc(F)cc2c1Oc1ccc(S(=O)(=O)N2CCN(C)CC2)cc1 [Example 2-41, {6-fluoro-3-methyl-4-[4-(4-methyl-piperazine-1-sulfonyl)-phenoxy]-naphthalen-2-yl}-acetic acid] |
| 2.8 | Cc1c(CC(=O)O)cc2ccc(F)cc2c1Oc1ccc(S(=O)(=O)C(C)C)cc1 [Example 2-4, {6-fluoro-3-methyl-4-[4-(propane-2-sulfonyl)-phenoxy]-naphthalen-2-yl}-acetic acid] |
| 2.2 | Cc1c(CC(=O)O)cc2ccc(Cl)cc2c1Oc1ccc(S(C)(=O)=O)cc1 [Example 2-7, [6-Chloro-4-(4-methanesulfonyl-phenoxy)-3-methyl-naphthalen-2-yl]-acetic acid] |
| 3.1 | CS(=O)(=O)c1ccc(Oc2cc(CC(=O)O)cc3ccc(F)cc23)cc1 [Example 1-2, [6-fluoro-4-(4-methanesulfonyl-phenoxy)-naphthalen-2-yl]-acetic acid] |
| 10 | Cc1c(CC(=O)O)cc2ccc(F)cc2c1Oc1ccc(C#N)cc1 [Example 2-44, [4-(4-cyano-phenoxy)-6-fluoro-3-methyl-naphthalen-2-yl]-acetic acid] |
| 8.2 | CCS(=O)(=O)c1cc(F)c(Oc2c(C)c(CC(=O)O)cc3ccc(F)cc23)cc1Cl [Example 2-24, [4-(5-chloro-4-ethanesulfonyl-2-fluoro-phenoxy)-6-fluoro-3-methyl-naphthalen-2-yl]-acetic acid] |
| 2.5 | Cc1c(CC(=O)O)cc2ccc(F)cc2c1Oc1ccc(S(C)(=O)=O)cc1Cl [Example 2-20, [4-(2-chloro-4-methanesulfonyl-phenoxy)-6-fluoro-3-methyl-naphthalen-2-yl]-acetic acid] |
| 6.3 | Cc1c(CC(=O)O)cc2ccc(F)cc2c1Oc1ccc(S(=O)(=O)N2CCOCC2)cc1 [Example 2-40, {6-fluoro-3-methyl-4-[4-(morpholine-4-sulfonyl)-phenoxy]-naphthalen-2-yl}-acetic acid] |
| 1.9 | Cc1c(CC(=O)O)cc2ccc(F)cc2c1Oc1ccc(S(=O)(=O)N(C)C)cc1 [Example 2-37, [4-(4-dimethylsulfamoyl-phenoxy)-6-fluoro-3-methyl-naphthalen-2-yl]-acetic acid] |
| 6.7 | CC(C)S(=O)(=O)c1ccc(Oc2cc(CC(=O)O)cc3ccc(F)cc23)cc1 [Example 1-4, {6-fluoro-4-[4-(propane-2-sulfonyl)-phenoxy]-naphthalen-2-yl}-acetic acid] |
| 12.9 | CS(=O)(=O)c1ccc(Oc2cc(CC(=O)O)cc3ccccc23)cc1 [Example 3-1, [4-(4-methanesulfonyl-phenoxy)-naphthalen-2-yl]-acetic acid] |
